Test results reported in article PMC8949600, “In Vitro & In Vivo Studies on Identifying and Designing Temporin-1CEh from the Skin Secretion of Rana chensinensis as the Optimised Antibacterial Prototype Drug” (Pharmaceutics, 2022).
Like-named read-outs stand apart in the source and are kept apart here. Ends that are not written are not given here.

Columns and labels:
[1] = 50% TFE environment ref 44; cited from earlier work
Source text: As the same situation found in the study of Temporin B KKG6A [31], T1CEh-KK experienced an improvement in antimicrobial activity, especially for the inhibition of the growth of E. coli. In addition, the substitution by proline leads to the weakening of the antimicrobial ability of T1CEh-KKP except for against S. aureus.

[2] = system: erythrocytes from defibrinated horse blood; experiment: Haemolysis assay; conditions: for haemolytic activity (in words): compared with the preceding peptide of the design series
Source text: (§4) The erythrocytes from defibrinated horse blood (TCS Biosciences Ltd., Buckingham, UK) were used to perform the haemolysis assay, as described previously [27]. Equal volumes of PBS and 2% (v/v) of the non-ionic detergent, Triton X-100 (Sigma–Aldrich, St. Louis, MO, USA) in PBS solution, were used as negative and positive controls, respectively. HC50 was defined as the mean peptide concentration producing 50% haemolysis.

[3] = system: MRSA (NCTC 12493); assay type: cell-based
Procedure: (§1) A measure of 5 × 10^5 CFU/mL of bacterial suspension including 2-fold dilution peptides (ranging from 1 µM to 512 µM) was incubated in 96-well plates for 16–20 h at 37 °C. For the positive and negative control, 200 mg/L of final concentration of norfloxacin and 1% DMSO were applied, respectively. […] Subsequently, 10 µL of the solution in each clear well was dropped on a Mueller–Hinton agar (MHA) plate and incubated at 37 °C for 16–20 h. The lowest concentration without colony growth was considered as the MBCs.
(§2) Mueller–Hinton broth (MHB) at pH 6.0 and 8.0 as well as MHB containing 10% of Fetal Bovine Serum (FBS), 150 mM of NaCl, 1 mM of MgCl2 and 4 µM of FeCl3, respectively, were prepared. In particular, the pathogens were diluted by the preprepared mediums to a final concentration of 5 × 10^5 CFU/mL after growing to the logarithmic phase, and other operations followed the MIC assay.

[4] = system: E. coli (ATCC 8739); assay type: cell-based
Procedure: as §1, §2

[5] = system: E. faecalis (NCTC 12697); assay type: cell-based
Procedure: as §1, §2

[6] = system: S. aureus (ATCC CRM 6538); assay type: cell-based
Procedure: as §1, §2

[7] = system: P. aeruginosa (ATCC 27853); assay type: cell-based
Procedure: as §1, §2

[8] = system: K. pneumoniae (ATCC 43816); assay type: cell-based
Procedure: as §1, §2

[9] = system: S. aureus (ATCC CRM 6538) biofilm; assay type: cell-based
Procedure: (§3) The anti-biofilm activities were tested on S. aureus and E. coli, as indicated previously. For the positive and negative control, 20 mg/mL of vancomycin and 1% DMSO were applied, respectively, in both assays. In addition, 0.1% Crystal Violet was used as the biofilm colouring agent.

[10] = system: erythrocytes from defibrinated horse blood; conditions: 256 µM
Source text: as §4

[11] = system: E. coli (ATCC 8739) biofilm; assay type: cell-based
Procedure: as §3

Row | Substance | haemolytic activity (in words) ([2]; horse erythrocytes) | MBC ([3]; NCTC 12493) [µM] | MIC ([3]; NCTC 12493) [µM] | MBC ([4]; ATCC 8739) [µM] | MIC ([4]; ATCC 8739) | MBC ([5]; NCTC 12697) [µM] | MIC ([5]; NCTC 12697) [µM] | MBC ([6]; ATCC CRM 6538) [µM] | MIC ([6]; ATCC CRM 6538) [µM] | MBC ([7]; ATCC 27853) [µM] | MIC ([7]; ATCC 27853) [µM] | MBC ([8]; ATCC 43816) [µM] | MIC ([8]; ATCC 43816) [µM] | MBEC [9] [µM] | MIC ([3]; NCTC 12493, pH 6) [µM] | MIC ([3]; NCTC 12493, pH 7) [µM] | MIC ([3]; NCTC 12493, pH 8) [µM] | MIC ([4]; ATCC 8739, pH 6) [µM] | MIC ([4]; ATCC 8739, pH 7) [µM] | MIC ([4]; ATCC 8739, pH 8) [µM] | other results
1 | Buforin II | – | – | – | – | – | – | – | – | – | – | – | – | – | – | – | – | – | – | – | – | helicity percent [1]: 43%
2 | FVDLKKIANII-NH2 [Peptide T1CEa-t] | completely lost | > 512 | > 512 | > 512 | > 512 µM | > 512 | > 512 | > 512 | > 512 | > 512 | > 512 | > 512 | > 512 | – | – | – | – | – | – | – | –
3 | FVDLKKIANIL-NH2 [Peptide T1CEh-t] | completely lost | > 512 | > 512 | > 512 | > 512 µM | > 512 | > 512 | > 512 | > 512 | > 512 | > 512 | > 512 | > 512 | – | – | – | – | – | – | – | –
4 | FVDLKKIANILNSIF-NH2 [Temporin-1CEh] | – | 16 | 16 | – | 128/128 μM | 32 | 32 | 16 | 8 | 256 | 128 | 256 | 256 | > 256 | 256 | 16 | 256 | >512 | 128 | >512 | MBIC [9]: 64 µM; HC50 ([2]; mean peptide concentration producing 50% haemolysis, horse erythrocytes): 152.6 µM; MIC ([5]; NCTC 12697, pH 6): >512 µM; MIC ([5]; NCTC 12697, pH 7): 32 µM; MIC ([5]; NCTC 12697, pH 8): >512 µM; MIC ([6]; ATCC CRM 6538, pH 6): 128 µM; MIC ([6]; ATCC CRM 6538, pH 7): 8 µM; MIC ([6]; ATCC CRM 6538, pH 8): 128 µM; MIC ([7]; ATCC 27853, pH 6): >512 µM; MIC ([7]; ATCC 27853, pH 7): 128 µM; MIC ([7]; ATCC 27853, pH 8): >512 µM; MIC ([8]; ATCC 43816, pH 6): >512 µM; MIC ([8]; ATCC 43816, pH 7): 256 µM; MIC ([8]; ATCC 43816, pH 8): >512 µM; haemolysis rate [10]: 92.3%
5 | KKFVDLKKIANIL-NH2 [Peptide T1CEh-KK] | maintained the low level of haemolysis | > 512 | > 512 | 16 | 8 µM | > 512 | 64 | > 512 | 256 | 256 | 256 | 128 | 128 | – | – | – | – | – | – | – | –
6 | KKFVPLKKIANIL-NH2 [Peptide T1CEh-KKP] | – | 256 | 256 | 128 | 128 µM | > 512 | > 512 | 64 | 32 | > 512 | 512 | > 512 | > 512 | – | – | – | – | – | – | – | –
7 | KKWVPLKKIANIL-NH2 [Peptide T1CEh-KKPW] | – | 64 | 16 | 16 | 8 µM | > 512 | > 512 | 16 | 8 | 64 | 32 | 16 | 16 | > 256 | >512 | 16 | 128 | 16 | 8 | 8 | MBIC [9]: 16 µM; MBEC [11]: > 256 µM; MBIC [11]: 16 µM; haemolysis rate ([2]; at 256 μM, horse erythrocytes): lower than 10%; MIC ([5]; NCTC 12697, pH 6): >512 µM; MIC ([5]; NCTC 12697, pH 7): >512 µM; MIC ([5]; NCTC 12697, pH 8): 256 µM; MIC ([6]; ATCC CRM 6538, pH 6): >512 µM; MIC ([6]; ATCC CRM 6538, pH 7): 8 µM; MIC ([6]; ATCC CRM 6538, pH 8): 32 µM; MIC ([7]; ATCC 27853, pH 6): 64 µM; MIC ([7]; ATCC 27853, pH 7): 32 µM; MIC ([7]; ATCC 27853, pH 8): 32 µM; MIC ([8]; ATCC 43816, pH 6): 256 µM; MIC ([8]; ATCC 43816, pH 7): 16 µM; MIC ([8]; ATCC 43816, pH 8): 128 µM
8 | KKWVPWKKIANIL-NH2 [Peptide T1CEh-KKPWW] | – | 256 | 32 | 4 | 4 µM | 128 | 128 | 4 | 4 | 16 | 16 | 4 | 4 | > 256 | 256 | 32 | 32 | 4 | 4 | 4 | MBEC [11]: > 256 µM; haemolysis rates ([2]; concentration not stated at the place (gradient of Figure 4)): lower than 6%; MIC ([5]; NCTC 12697, pH 6): >512 µM; MIC ([5]; NCTC 12697, pH 7): 128 µM; MIC ([5]; NCTC 12697, pH 8): 64 µM; MIC ([6]; ATCC CRM 6538, pH 6): 32 µM; MIC ([6]; ATCC CRM 6538, pH 7): 4 µM; MIC ([6]; ATCC CRM 6538, pH 8): 4 µM; MIC ([7]; ATCC 27853, pH 6): 16 µM; MIC ([7]; ATCC 27853, pH 7): 16 µM; MIC ([7]; ATCC 27853, pH 8): 4 µM; MIC ([8]; ATCC 43816, pH 6): 32 µM; MIC ([8]; ATCC 43816, pH 7): 4 µM; MIC ([8]; ATCC 43816, pH 8): 8 µM
